From the NIST ThermoML archive (doi:10.1016/j.jct.2010.08.019)

Experiment: xn = mol fraction of the nth substance listed
Conditions: for surface tension liquid-gas: Wilhelmy-plate method; for viscosity / mass density: 101 kPa, Liquid; for viscosity: Falling or rolling sphere viscometry; for mass density: Vibrating tube method

C1CCOCC1 [tetrahydropyran] + CC(C)CC(C)(C)C
Conditions	mass density [kg/m3]	surface tension liquid-gas [mN/m]	viscosity [mPa·s]
293.15 K, x1 = 0.0502	697.82	18.9	0.506
293.15 K, x1 = 0.1	703.85	19	0.514
293.15 K, x1 = 0.1499	710.17	19.2	0.524
293.15 K, x1 = 0.2	716.8	19.4	0.533
293.15 K, x1 = 0.25	723.72	19.6	0.544
293.15 K, x1 = 0.3	730.98	19.8	0.553
293.15 K, x1 = 0.35	738.59	20.1	0.564
293.15 K, x1 = 0.4	746.55	20.3	0.577
293.15 K, x1 = 0.4498	754.88	20.6	0.592
293.15 K, x1 = 0.5001	763.72	20.9	0.606
293.15 K, x1 = 0.5501	772.97	21.2	0.623
293.15 K, x1 = 0.5999	782.67	21.6	0.638
293.15 K, x1 = 0.6501	793	22	0.655
293.15 K, x1 = 0.6999	803.82	22.5	0.675
293.15 K, x1 = 0.75	815.32	23.1	0.696
293.15 K, x1 = 0.8	827.51	23.6	0.718
293.15 K, x1 = 0.8501	840.43	24.3	0.743
293.15 K, x1 = 0.9	854.12	25.2	0.771
293.15 K, x1 = 0.95	868.68	26.3	0.803
293.15 K, x1 = 1	884.27	27.5	0.86
303.15 K, x1 = 0.0502	689.38	18	0.452
303.15 K, x1 = 0.1	695.35	18.2	0.455
303.15 K, x1 = 0.1499	701.6	18.3	0.463
303.15 K, x1 = 0.2	708.16	18.6	0.47
303.15 K, x1 = 0.25	715.01	18.8	0.478
303.15 K, x1 = 0.2999	722.17	19	0.488
303.15 K, x1 = 0.3498	729.67	19.2	0.497
303.15 K, x1 = 0.3998	737.56	19.5	0.509
303.15 K, x1 = 0.4498	745.84	19.7	0.52
303.15 K, x1 = 0.5001	754.6	20	0.533
303.15 K, x1 = 0.5501	763.76	20.3	0.546
303.15 K, x1 = 0.5999	773.38	20.6	0.56
303.15 K, x1 = 0.6501	783.61	21	0.574
303.15 K, x1 = 0.6999	794.32	21.5	0.59
303.15 K, x1 = 0.75	805.72	22.1	0.607
303.15 K, x1 = 0.8	817.78	22.6	0.625
303.15 K, x1 = 0.8501	830.59	23.3	0.646
303.15 K, x1 = 0.9	844.14	24.2	0.67
303.15 K, x1 = 0.95	858.58	25.2	0.699
303.15 K, x1 = 1	874.07	26.2	0.749
313.15 K, x1 = 0.0501	680.92	17.1	0.407
313.15 K, x1 = 0.1002	686.85	17.3	0.411
313.15 K, x1 = 0.1501	693.02	17.5	0.416
313.15 K, x1 = 0.1999	699.48	17.7	0.422
313.15 K, x1 = 0.2501	706.27	17.9	0.429
313.15 K, x1 = 0.3	713.35	18.1	0.437
313.15 K, x1 = 0.3499	720.78	18.4	0.444
313.15 K, x1 = 0.4002	728.64	18.6	0.453
313.15 K, x1 = 0.4502	736.83	18.9	0.463
313.15 K, x1 = 0.4999	745.4	19.1	0.473
313.15 K, x1 = 0.5499	754.47	19.4	0.484
313.15 K, x1 = 0.6	764.05	19.7	0.496
313.15 K, x1 = 0.65	774.13	20.1	0.509
313.15 K, x1 = 0.6998	784.75	20.6	0.523
313.15 K, x1 = 0.75	796.05	21.2	0.538
313.15 K, x1 = 0.8001	808	21.7	0.554
313.15 K, x1 = 0.8501	820.66	22.4	0.573
313.15 K, x1 = 0.9001	834.12	23.2	0.596
313.15 K, x1 = 0.9498	848.37	24.1	0.624
313.15 K, x1 = 1	863.76	25.1	0.658
323.15 K, x1 = 0.0501	672.44	16.4	0.366
323.15 K, x1 = 0.1002	678.3	16.6	0.369
323.15 K, x1 = 0.1501	684.41	16.7	0.372
323.15 K, x1 = 0.1999	690.79	17	0.377
323.15 K, x1 = 0.2501	697.5	17.2	0.383
323.15 K, x1 = 0.3	704.51	17.3	0.39
323.15 K, x1 = 0.3499	711.86	17.5	0.398
323.15 K, x1 = 0.4002	719.63	17.8	0.406
323.15 K, x1 = 0.45	727.72	18	0.415
323.15 K, x1 = 0.5002	736.27	18.3	0.424
323.15 K, x1 = 0.55	745.22	18.5	0.433
323.15 K, x1 = 0.5997	754.63	18.8	0.443
323.15 K, x1 = 0.65	764.68	19.2	0.454
323.15 K, x1 = 0.6998	775.17	19.6	0.466
323.15 K, x1 = 0.75	786.37	20.1	0.479
323.15 K, x1 = 0.8001	798.2	20.7	0.493
323.15 K, x1 = 0.8501	810.77	21.3	0.508
323.15 K, x1 = 0.9002	824.1	22.1	0.523
323.15 K, x1 = 0.95	838.27	22.9	0.541
323.15 K, x1 = 1	853.46	23.8	0.565
